The experiment can be described thus: Effective concentration required to stimulate Adenylate cyclase.

Structures are written as SMILES.

The EC50 is the concentration that produces a half-maximal response. Low values mean an effect from little substance, high ones a need for much substance. `Cc1ccc([C@H]2CNCCc3cc(O)c(O)cc32)cc1` returned an EC50 of 210 nM.

(Values after BindingDB's records for doi:10.1021/jm00170a025 (Royal Danish School of Pharmacy, 1990).)
